Calls of active or inactive are those of the source.
Experiments:
[1] = target: Voltage-dependent T-type calcium channel subunit alpha-1H (Homo sapiens, UniProt O95180); format: functional;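 note: channel activity triggered by adding a high calcium stimulation buffer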
[2] = target: T1, Heat shock factor protein 1 (Mus musculus, UniProt P38532); assay: inhibition of MG132-induced HSE-luciferase signal, confirmation, cell-based, NIH3T3, luminescence, dose retest (AID 2382); format: functional;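 note: NIH3T3 fibroblasts with HSF1-driven luciferase reporter stressed by proteasome inhibitor MG132; luminescence from HSF1-driven luciferase expression after 8 hours of MG132 stress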
T1 sequence (P38532 whole entry): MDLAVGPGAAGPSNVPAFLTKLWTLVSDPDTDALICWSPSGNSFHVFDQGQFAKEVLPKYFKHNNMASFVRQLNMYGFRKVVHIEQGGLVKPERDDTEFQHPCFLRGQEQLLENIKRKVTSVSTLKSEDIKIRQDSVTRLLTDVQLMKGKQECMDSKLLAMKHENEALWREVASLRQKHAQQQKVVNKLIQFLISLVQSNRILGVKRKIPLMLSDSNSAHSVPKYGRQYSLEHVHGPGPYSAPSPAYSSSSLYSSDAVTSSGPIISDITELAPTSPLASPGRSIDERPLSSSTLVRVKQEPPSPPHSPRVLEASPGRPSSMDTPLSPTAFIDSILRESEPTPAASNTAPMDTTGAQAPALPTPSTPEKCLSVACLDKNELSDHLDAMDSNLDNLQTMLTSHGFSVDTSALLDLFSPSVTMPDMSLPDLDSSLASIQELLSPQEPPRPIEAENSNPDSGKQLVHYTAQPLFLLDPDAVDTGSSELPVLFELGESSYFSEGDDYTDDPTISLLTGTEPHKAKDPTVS

[3] = target: T2, Carboxy-terminal domain RNA polymerase II polypeptide A small phosphatase 1 (Homo sapiens, UniProt Q9GZU7); assay: inhibitors of CTDSP1, concentration-response testing, biochemical assay, absorbance-based, actives from ultra-high-throughput screening (AID 540297); format: functional
T2 sequence (Q9GZU7 whole entry): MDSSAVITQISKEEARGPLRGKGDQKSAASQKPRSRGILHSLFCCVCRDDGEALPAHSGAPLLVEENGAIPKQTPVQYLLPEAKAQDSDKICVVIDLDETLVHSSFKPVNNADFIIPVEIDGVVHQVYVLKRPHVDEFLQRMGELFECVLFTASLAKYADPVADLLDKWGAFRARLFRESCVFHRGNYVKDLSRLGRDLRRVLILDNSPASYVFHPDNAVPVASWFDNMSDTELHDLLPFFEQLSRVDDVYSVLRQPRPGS

BJ [4] = assay: cytotoxicity toward BJ-TERT fibroblasts, dose response, cell-based, RAS-independent, luminescence (AID 1933); format: functional; conditions: Homo sapiens
BJ [5] = assay: cells; format: functional, cell-based; conditions: Homo sapiens
BJ [6] = assay: cytotoxicity toward BJ-TERT-LT-ST fibroblasts, dose response, cell-based, RAS-independent, luminescence (AID 1935); format: functional; conditions: Homo sapiens;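 note: BJ fibroblasts immortalized with TERT plus LT and ST oncogenes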
[7] = cytotoxicity toward DRD oncogenic fibroblasts, dose response, cell-based, non-viral oncogenic, luminescence (AID 1934); format: functional; conditions: Homo sapiens
SUMO-activating enzyme [8] = target: T3, SUMO-activating enzyme (Homo sapiens, UniProt Q9UBT2); assay: SUMOylation inhibitor hit validation, confirmation, SUMOylation inhibitor project, biochemical, AlphaScreen (AID 2018); format: functional
[9] = inhibitors of HIV Env-driven cell fusion, dose response, cherry-pick (AID 652057); format: functional, cell-based
[10] = ZM109 Env clade C HIV-1 fusion inhibitors, dose response, HeLa effector, CEM target cells, luciferase, cherry-pick (AID 652058); format: functional, cell-based
HEK293 = assay: inhibitors of LMP1-driven NF-kB reporter, dose response, cell-based, HEK293, luciferase, cherry-pick (AID 588343); format: functional; conditions: Homo sapiens
[11] = microbe, parasite or virus in culture; format: functional; conditions: Mycobacterium tuberculosis
INS1 = assay: beta cell apoptosis inhibitors, cytokine rescue, dose response, luminescence, retest (AID 449756); format: functional, cell-based; conditions: Rattus norvegicus;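 note: cell death triggered by IL-1 beta plus TNF-alpha plus IFN-gamma mixture; protective hits raise ATP signal compared with cytokine alone wells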
SUMO-activating enzyme [12] = target: T3, SUMO-activating enzyme; assay: inhibitors of in vitro SUMOylation cascade, primary screen, biochemical, HTRF, uHTS (AID 2006); format: protein-complex assay
SN12K1 = assay: cells; format: functional; conditions: Homo sapiens

T3 sequence (Q9UBE0 whole entry, the tested form may be a part): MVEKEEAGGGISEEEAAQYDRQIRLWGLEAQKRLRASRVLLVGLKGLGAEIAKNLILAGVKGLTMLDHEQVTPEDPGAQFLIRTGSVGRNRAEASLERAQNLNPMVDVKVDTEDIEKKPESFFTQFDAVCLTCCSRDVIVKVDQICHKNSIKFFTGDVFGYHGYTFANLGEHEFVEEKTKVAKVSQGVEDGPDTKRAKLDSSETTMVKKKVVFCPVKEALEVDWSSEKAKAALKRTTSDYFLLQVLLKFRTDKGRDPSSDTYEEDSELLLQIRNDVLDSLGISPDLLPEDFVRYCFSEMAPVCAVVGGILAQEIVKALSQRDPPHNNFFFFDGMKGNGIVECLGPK
T3 sequence (Q9UBT2 whole entry, the tested form may be a part): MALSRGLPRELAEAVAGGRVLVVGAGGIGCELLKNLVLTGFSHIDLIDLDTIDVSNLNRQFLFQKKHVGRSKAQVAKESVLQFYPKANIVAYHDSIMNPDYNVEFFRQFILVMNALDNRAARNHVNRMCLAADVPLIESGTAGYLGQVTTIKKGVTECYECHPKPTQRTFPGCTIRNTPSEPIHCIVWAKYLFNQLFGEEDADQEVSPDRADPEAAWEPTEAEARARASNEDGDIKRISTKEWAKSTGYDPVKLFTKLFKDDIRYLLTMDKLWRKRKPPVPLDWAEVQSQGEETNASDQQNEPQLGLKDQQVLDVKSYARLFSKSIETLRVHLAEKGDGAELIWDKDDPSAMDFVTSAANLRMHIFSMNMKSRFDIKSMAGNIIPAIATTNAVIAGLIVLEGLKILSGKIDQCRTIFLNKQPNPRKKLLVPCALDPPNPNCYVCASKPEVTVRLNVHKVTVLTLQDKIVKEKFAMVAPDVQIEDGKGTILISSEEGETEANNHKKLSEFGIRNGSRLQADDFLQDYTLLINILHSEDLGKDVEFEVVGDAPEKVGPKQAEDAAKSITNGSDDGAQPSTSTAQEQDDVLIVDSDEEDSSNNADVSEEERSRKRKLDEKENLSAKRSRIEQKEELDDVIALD
Voltage-dependent T-type calcium channel subunit alpha-1H, sequence (O95180 whole entry): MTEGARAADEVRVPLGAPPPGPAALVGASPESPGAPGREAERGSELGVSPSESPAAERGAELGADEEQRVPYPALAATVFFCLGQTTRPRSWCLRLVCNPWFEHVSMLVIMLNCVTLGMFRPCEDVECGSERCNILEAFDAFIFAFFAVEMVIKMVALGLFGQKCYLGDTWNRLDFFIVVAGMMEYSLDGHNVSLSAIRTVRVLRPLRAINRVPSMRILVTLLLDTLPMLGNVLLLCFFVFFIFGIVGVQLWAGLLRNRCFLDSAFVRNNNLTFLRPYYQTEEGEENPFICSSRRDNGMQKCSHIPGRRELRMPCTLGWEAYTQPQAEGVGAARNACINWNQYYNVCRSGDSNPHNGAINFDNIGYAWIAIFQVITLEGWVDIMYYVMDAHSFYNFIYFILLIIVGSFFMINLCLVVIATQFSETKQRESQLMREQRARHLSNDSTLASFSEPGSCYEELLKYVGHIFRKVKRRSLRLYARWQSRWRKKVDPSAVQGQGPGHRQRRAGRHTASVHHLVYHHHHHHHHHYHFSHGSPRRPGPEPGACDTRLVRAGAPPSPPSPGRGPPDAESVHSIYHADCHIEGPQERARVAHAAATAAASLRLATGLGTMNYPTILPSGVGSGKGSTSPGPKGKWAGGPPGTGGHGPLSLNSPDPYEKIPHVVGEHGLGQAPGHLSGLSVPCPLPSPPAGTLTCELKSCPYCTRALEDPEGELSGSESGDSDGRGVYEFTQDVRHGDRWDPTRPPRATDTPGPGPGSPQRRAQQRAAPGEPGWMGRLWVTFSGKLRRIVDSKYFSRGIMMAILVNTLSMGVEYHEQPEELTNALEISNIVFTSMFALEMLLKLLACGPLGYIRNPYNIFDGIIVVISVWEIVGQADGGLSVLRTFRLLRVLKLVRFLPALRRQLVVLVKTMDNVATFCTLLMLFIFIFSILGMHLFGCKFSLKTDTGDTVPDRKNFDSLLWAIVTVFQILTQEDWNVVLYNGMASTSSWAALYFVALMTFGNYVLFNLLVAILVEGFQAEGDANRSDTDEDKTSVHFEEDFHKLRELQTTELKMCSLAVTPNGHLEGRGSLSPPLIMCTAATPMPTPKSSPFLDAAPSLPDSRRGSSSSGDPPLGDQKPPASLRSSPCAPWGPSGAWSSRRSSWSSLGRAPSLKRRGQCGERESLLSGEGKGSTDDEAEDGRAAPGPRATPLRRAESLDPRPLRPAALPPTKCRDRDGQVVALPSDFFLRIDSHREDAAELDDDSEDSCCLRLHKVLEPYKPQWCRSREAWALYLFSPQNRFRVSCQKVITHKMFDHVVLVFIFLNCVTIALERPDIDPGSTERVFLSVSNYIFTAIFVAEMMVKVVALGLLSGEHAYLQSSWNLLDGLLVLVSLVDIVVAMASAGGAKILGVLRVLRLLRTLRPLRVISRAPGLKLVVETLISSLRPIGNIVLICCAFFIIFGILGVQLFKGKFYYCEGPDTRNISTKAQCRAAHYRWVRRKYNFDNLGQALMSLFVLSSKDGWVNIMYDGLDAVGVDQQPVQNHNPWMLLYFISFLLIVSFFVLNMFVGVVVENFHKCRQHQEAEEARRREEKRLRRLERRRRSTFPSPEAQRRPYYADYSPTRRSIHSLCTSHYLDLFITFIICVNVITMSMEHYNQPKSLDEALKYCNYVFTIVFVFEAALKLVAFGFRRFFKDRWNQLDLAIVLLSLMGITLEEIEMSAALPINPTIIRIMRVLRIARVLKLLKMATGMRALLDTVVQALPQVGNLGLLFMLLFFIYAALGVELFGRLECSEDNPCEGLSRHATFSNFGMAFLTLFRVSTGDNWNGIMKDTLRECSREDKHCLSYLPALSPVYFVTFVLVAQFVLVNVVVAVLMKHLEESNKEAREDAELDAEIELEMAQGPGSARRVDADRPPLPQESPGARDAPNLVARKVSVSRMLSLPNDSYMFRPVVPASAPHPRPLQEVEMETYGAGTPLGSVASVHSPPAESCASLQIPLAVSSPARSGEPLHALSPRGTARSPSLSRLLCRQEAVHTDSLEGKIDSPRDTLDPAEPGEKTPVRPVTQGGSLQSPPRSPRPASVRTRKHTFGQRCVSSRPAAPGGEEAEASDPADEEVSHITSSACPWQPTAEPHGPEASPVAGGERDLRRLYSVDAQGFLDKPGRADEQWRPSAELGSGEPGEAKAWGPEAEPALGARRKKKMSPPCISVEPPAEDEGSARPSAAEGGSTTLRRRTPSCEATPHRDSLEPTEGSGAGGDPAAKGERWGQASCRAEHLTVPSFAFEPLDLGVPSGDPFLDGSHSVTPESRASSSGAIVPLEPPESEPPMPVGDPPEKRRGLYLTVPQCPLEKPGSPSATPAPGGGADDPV

CCOc1ccc(C(=O)Nc2c3c(nn2C(C)(C)C)CSC3)cc1OCC
EC50 [1]: 3.79 µM (active)

CC(C)[C@H](NC(=O)Cc1ccccc1)C(=O)OCc1cc(=O)n2c(n1)sc1ccccc12
EC50 [2]: 21.5 µM (active)
IC50 [3]: 3.58 µM (active)

Cc1cccc(NS(=O)(=O)c2ccc(NC(=O)CN(c3cc([N+](=O)[O-])ccc3C)S(C)(=O)=O)cc2)c1
EC50 (BJ [4]): 22.7 µM (active)
EC50 (BJ [5]): 7.28 µM (active)
EC50 (BJ [6]): 7.77 µM (inconclusive)
EC50 [7]: > 150 µM (not active)

CCOc1cc(/C=N/N=C(\N)c2nonc2N)cc(Br)c1OCc1cccc2ccccc12
IC50 (SUMO-activating enzyme [8]): 80 µM (active)

Cc1ccc(S(=O)(=O)N(C)C[C@H]2Oc3cc(-c4cccc(F)c4)ccc3S(=O)(=O)N([C@H](C)CO)C[C@H]2C)cc1
AC50 [9]: 1.47 µM (active)
AC50 [10]: < 0.26 µM (active)

O=Cc1ccc(-c2cccs2)s1
AC50 (HEK293): 6.76 µM (active)

CC(C)NC(=S)N/N=C/c1cc(Br)ccc1O
CC50 [11]: 38.5 µM (active)
AC50 (INS1): 1.65 µM (active)

Cc1cccc(-c2nnc(S)n2/N=C/C=C/c2ccco2)c1
IC50 (SUMO-activating enzyme [12]): > 100 µM (inactive)

O=C(N/N=C/c1ccc(Cl)cc1)c1nc(O)c2cc([N+](=O)[O-])ccc2n1
IC50 (SUMO-activating enzyme [8]): 21.5 µM (active)
IC50 (SUMO-activating enzyme [12]): 22 µM (active)

CN(C)c1cccc(/N=C2/C=C(N3CCOCC3)CC(C)(C)C2)c1
IC50 [3]: 5.65 µM (active)

C/C=C/C1=C(Cl)C(=O)[C@@H](Cl)[C@@]1(O)C(=O)OC [(+)-CRYPTOSPORIPSIN]
GI50 (SN12K1): 1.89 µM (inactive)
